Assay results as given in paper PMC6331934, “Study of the Biotransformation of Tongmai Formula by Human Intestinal Flora and Its Intestinal Permeability across the Caco-2 Cell Monolayer” (Molecules, 2015).

Legend:
[1] = Bidirectional transport across the Caco-2 cell monolayer (Papp, efflux ratio, mass balance); conditions: human; for recovery at 90 min, 50 μM: mass balance, total amount in AP and BL sides, incubation up to 90 min, n = 3
[2] = Time course of TMF constituents during anaerobic biotransformation by human intestinal flora; assay type: in vitro ADME; conditions: male, human, human intestinal flora (faecal suspension in GAM); incubation by HIF; read-out: Time of maximum concentration
Procedure: (§1) The general anaerobic medium (GAM) of HIF was prepared as follows: 10.0 g of tryptone, 10.0 g of proteose peptone, 13.5 g of digested serum powder, 5.0 g of yeast extract, 2.2 g of beef extract, 1.2 g of beef liver extract powder, 3.0 g of glucose, 2.5 g of KH2PO4, 3.0 g of NaCl, 5.0 g of soluble starch, 0.3 g of L-cysteine hydrochloride, and 0.3 g of sodium thioglycolate were dissolved in H2O. Adjust the pH of GAM solution to 7.1–7.2 with 1M NaOH aqueous solution and supply the total volume to 1 L. Ten grams of fresh feces obtained from a healthy volunteer, who had not taken any medicine in three months, were immediately homogenized and suspended in GAM (50 mL) solution. The HIF was undertaken according to the previous paper of our laboratory. Preparation of the biotransformation products of TMF by HIF was followed by the method of previous research.
(§2) A biotransformation system consisting of HIF (10 mL) and TMF (10 mg) was anaerobically incubated at 37 °C. All experiments were carried out in sextuplicate at each time point. The biotransformation reaction was stopped at 0.5, 1, 2, 4, 8, 12, 24, 36, 48, 60 h. The biotransformation solution was extracted with n-butanol (each 10 mL) three times. The combined n-butanol layer was evaporated to dryness under a gentle stream of nitrogen. MeOH (400 μL) was used to dissolve the residue which acted as a deproteinization agent. The resultant solution was vortex-mixed for 1 min and centrifuged at 16,000 g for 10 min at 4 °C. The supernatant was collected and filtered through a 0.22 μm filter as the test solution. The blank sample was prepared using TMF-free medium solution with the same processing steps. […] The column temperature was set at 30 °C and detection wavelength was set at 254 nm.

[3] = system: human intestinal flora (HIF); assay: as above; assay type: in vitro ADME; conditions: for Reduction of content (fold): after 60 h incubation by HIF; for Increase of content (fold): 60 h incubation by HIF
Procedure: as §1, §2

[4] = system: Caco-2 cell monolayer; assay: Bidirectional transport across the Caco-2 cell monolayer (Papp, efflux ratio, mass balance); conditions: Caco-2 monolayer; classes after ref 18
[5] = in vitro; conditions: human
[6] = system: RAW 264.7 murine macrophages cells; set-up: method as in PMID 22644850; conditions: RAW 264.7 cells; compared with daidzin; cited from earlier work
[7] = Caco-2, pH 7.4, Level (order of magnitude) of Papp, Caco-2 monolayer
[8] = Caco-2, pH 7.4, Total Recovery (%) AP→BL
[9] = Caco-2, pH 7.4, Total Recovery (%) BL→AP
[10] = Caco-2, pH 7.4, Absorption class by Papp, Caco-2 monolayer, classes after ref 18

Row | SMILES | Papp A→B at 90 min, 50 μM ([1]; Caco-2, pH 7.4) | Papp B→A at 90 min, 50 μM ([1]; Caco-2, pH 7.4) | efflux ratio at 1 h, 50 μM ([1]; Caco-2, pH 7.4) | Papp at 1 h, 50 μM [1, 7] | recovery at 90 min, 50 μM [1, 8] | recovery at 90 min, 50 μM [1, 9] | further results
1 | O=c1c(-c2ccc(O)c(O)c2)coc2c(C3OC(CO)C(O)C(O)C3O)c(O)ccc12 (stereo not drawn) [Compound 1, 3′-hydroxypuerarin] | 4.5 ± 0.2 nm/s | 2.9 ± 0.1 nm/s | 0.64 | – | 98.1% | 94.4% | Tmax [2]: 2 h
2 | O=Cc1ccc(O)c(O)c1 [Compound 2, protocatechuic aldehyde] | – | – | – | – | – | – | Content remaining ([3]; at 60 h incubation by HIF): ~50%
3 | O=c1c(-c2ccc(O)c(O)c2)coc2c([C@@H]3O[C@H](CO[C@@H]4OC[C@](O)(CO)[C@H]4O)[C@@H](O)[C@H](O)[C@H]3O)c(O)ccc12 [Compound 3, 3′-hydroxymirificin] | 9.7 ± 0.1 nm/s | 5.3 ± 0.1 nm/s | 0.55 | – | 101% | 98.3% | Content remaining ([3]; early stage (4 h) of incubation by HIF): ~25%
4 | O=c1c(-c2ccc(O)cc2)coc2c([C@@H]3O[C@H](CO)[C@@H](O)[C@H](O)[C@H]3O)c(O)ccc12 [Compound 4, puerarin] | 6.8 ± 0.2 nm/s | 4.1 ± 0.1 nm/s | 0.6 | ~1 nm/s | 96.6% | 95.7% | Absorption class by Papp [4]: poorly absorbed
5 | O=c1c(-c2ccc(O)cc2)coc2cc(O[C@@H]3O[C@H](CO)[C@@H](O)[C@H](O)[C@H]3O)ccc12 [Compound 7, daidzin] | 4 ± 0.1 nm/s | 3.7 ± 0.1 nm/s | 0.92 | – | 99.8% | 98.5% | Reduction of content (fold) [3]: 10 fold; Conversion by HIF ([3]; during the 60 h incubation by HIF): almost completely converted into daidzein (10); Absorption class by Papp [4]: poorly absorbed; Papp at 1 h, 50 μM ([1]; Caco-2, pH 7.4): ~1 nm/s
6 | O=c1c(-c2ccc(O)cc2)coc2cc(O)ccc12 [Compound 10, daidzein] | – | – | – | – | – | – | Papp A→B at 90 min, 50 μM ([5]; Caco-2, pH 7.4): 255 ± 3.4 nm/s; Papp B→A at 90 min, 50 μM ([5]; Caco-2, pH 7.4): 262.2 ± 0.1 nm/s; Papp at 1 h, 50 μM ([5]; Caco-2, pH 7.4, Absorption class by Papp): > 100 nm/s; Papp at 1 h, 50 μM ([5]; Caco-2, pH 7.4, Level (order of magnitude) of Papp): ~100 nm/s; recovery at 90 min, 50 μM [5, 8]: 93.4%; recovery at 90 min, 50 μM [5, 9]: 100%; Inhibitory effect on lipopolysaccharide-induced nitric oxide production [6]: stronger than that of daidzin
7 | CC(C)NCC(O)COc1cccc2ccccc12 (stereo not drawn) [propranolol, reference compound] | – | – | – | – | – | – | Papp A→B at 1 h ([1]; Caco-2, pH 7.4): 337 nm/s

Continued, in another order:

Row | Papp A→B at 90 min, 50 μM ([1]; Caco-2, pH 7.4) | Papp B→A at 90 min, 50 μM ([1]; Caco-2, pH 7.4) | efflux ratio at 1 h, 50 μM ([1]; Caco-2, pH 7.4) | Papp at 1 h, 50 μM [1, 7] | recovery at 90 min, 50 μM [1, 8] | recovery at 90 min, 50 μM [1, 9] | SMILES | further results
8 | 12.9 ± 2.8 nm/s | 10.3 ± 0.9 nm/s | 0.8 | ~10 nm/s | 77% | 91.4% | COc1ccc(C2=CC(=O)OC2Cc2ccc(O)cc2)c(OC2OC(CO)C(O)C(O)C2O)c1 (racemic) [Compound 8, (±)-puerol B-2″-O-glucopyranoside] | –
9 | 7.5 ± 0.9 nm/s | 4.7 ± 0.3 nm/s | 0.63 | – | 94.6% | 86.2% | COc1cc(-c2coc3c(C4OC(CO)C(O)C(O)C4O)c(O)ccc3c2=O)ccc1O (stereo not drawn) [Compound 5, 3′-methoxypuerarin] | Content remaining ([3]; at 60 h incubation by HIF): ~50%
10 | 2.9 ± 0.1 nm/s | 2.3 ± 0.1 nm/s | 0.79 | – | 99.4% | 98.5% | O=c1c(-c2ccc(O)cc2)coc2c([C@@H]3O[C@H](CO[C@@H]4OC[C@](O)(CO)[C@H]4O)[C@@H](O)[C@H](O)[C@H]3O)c(O)ccc12 [Compound 6, mirificin] | Reduction of content (fold) [3]: 10 fold
11 | 62.7 ± 8.1 nm/s | 83 ± 16 nm/s | 1.32 | ~10 nm/s | 86% | 90.9% | O=C1C=C(c2ccc(O)cc2O)[C@@H](Cc2ccc(O)cc2)O1 [Compound 9, puerol A] | Increase of content (fold) [3]: more than 3 fold
12 | 324 ± 38.6 nm/s | 377 ± 19.3 nm/s | 1.16 | ~100 nm/s | 86.7% | 75.7% | O=c1c(-c2ccc(O)cc2)coc2cc(O)cc(O)c12 [Compound 11, genistein] | Increase of content (fold) [3]: more than 3 fold; Papp at 1 h, 50 μM [1, 10]: > 100 nm/s
13 | 306.4 ± 0.7 nm/s | 265 ± 11 nm/s | 0.87 | ~100 nm/s | 102% | 98% | COc1ccc(-c2coc3cc(O)ccc3c2=O)cc1 [Compound 12, formononetin] | Increase of content (fold) [3]: more than 3 fold; Papp at 1 h, 50 μM [1, 10]: > 100 nm/s
